The text below walks through data of patent publication US12075778B2, “Inhibitor for resisting muskmelon powdery mildew as well as preparation method and application thereof” (Northeast Agricultural University, priority 2022, dated 2024).

For assay [1], the system named is pathogen of muskmelon gummy stem blight. The experiment in a line: Plate experiment of inhibitory effect on pathogen of muskmelon gummy stem blight (PDA medium). It is filed as cell-based. The note with it: allantoin aqueous solution 700 mg/L and 1050 mg/L smeared on PDA plates, 7 days, 28° C. How it is done: Based on the purpose of study, the inventor designed a plate experiment. Considering that powdery mildew is a living parasitic fungi and can only grow and reproduce on living plants, a PDA medium cannot be used for culturing, so that pathogen of muskmelon gummy stem blight is used for experiment. The specific experiment method is as follows: a PDA medium was prepared and poured into plates; equal amounts of an allantoin aqueous solution with the concentration of 700 mg/L, an allantoin aqueous solution with the concentration of 1050 mg/L and sterile water were respectively smeared on three plates, and then a bacterial cake of the pathogen of muskmelon gummy stem blight was inoculated in the center of each plate; the plates were cultured for 7 days under 28° C., and the growth of the pathogen of muskmelon gummy stem blight in the three plates was observed.

A further assay concerns muskmelon powdery mildew. Kind of assay: Resistance to powdery mildew of muskmelon plants sprayed with allantoin aqueous solution and inoculated with spore suspension (greenhouse). As to conditions: for plant morbidity: inoculated 24 h after first spraying. It is filed as in vivo, Podosphaera xanthii. How it is done: Preparation and inoculation of pathogen spore suspension of muskmelon powdery mildew:
Muskmelon leaves with severe powdery mildew were randomly selected from the field, and conidia were transferred to a beaker containing sterile water by a brush and uniformly stirred to obtain the spore suspension of powdery mildew. Spore concentration was measured under an optical microscope by using a blood counting chamber, and the concentration of the spore suspension was adjusted to be 1×10^6spores/mL for later use, which was used for inoculation tests. It was identified that this bacterial suspension was the bacterial suspension of muskmelon powdery mildew.
Muskmelon seedlings were planted in a greenhouse in June. When the muskmelon seedlings grown to the spreading stage, they were divided into a blank group, a pathogen inoculation group, a negative control group and an experimental group. […] The negative control group was sprayed with the sterile water at 5:00 pm to 6:00 pm, spraying was carried out once every three days, and the spraying amount of each time was the same as that of the aqueous solution containing allantoin in the experimental group. 24 hours after the first spraying of the allantoin water solution in the experimental group, the negative control group, the pathogen inoculation group and the experimental group were inoculated with the spore suspension of powdery mildew obtained above after the solution on the leaves was evaporated. After the pathogen inoculation group was infected with powdery mildew, the resistance to powdery mildew of the experimental group and the negative control group was observed (as shown in FIG. 1A-B), and the disease index, morbidity and control efficiency of the experimental group were calculated.
Leaf morphology was graded according to the response of the muskmelon leaves infected with powdery mildew. Grade 0: no infection; grade 1: no obvious infection; grade 2: mild infection; grade 3: moderate infection; grade 4: severe infection; and grade 5: whole-leaf infection. Disease index=sum of disease grade numbers of all leaves of an individual plant/number of leaves of the individual plant×the highest disease grade of the leaves of the individual plant Morbidity=number of infected individual plants/total number of investigated individual plants×100% Control efficiency=number of uninfected individual plants/total number of investigated individual plants×100%
Muskmelon seedlings were planted in a greenhouse in June. When the muskmelon seedlings grown to the three-leaves and one-bud stage, they were divided into a blank group, a pathogen inoculation group, a negative control group and an experimental group. The muskmelon leaves in the experimental group were sprayed with an aqueous solution containing allantoin with the concentration of 1050 mg/L at 5:00 pm to 6:00 pm, spraying was carried out once every three days, and a medicament was uniformly covered on the leaves for each time of spraying. The negative control group was sprayed with the sterile water at 5:00 pm to 6:00 pm, spraying was carried out once every three days, and the spraying amount of each time was the same as that of the aqueous solution containing allantoin in the experimental group. 24 hours after the first spraying of the allantoin water solution in the experimental group, the negative control group, the pathogen inoculation group and the experimental group were inoculated with the spore suspension of powdery mildew obtained above after the solution on the leaves was evaporated. After the pathogen inoculation group was infected with powdery mildew, the resistance to powdery mildew of the experimental group was observed (as shown in FIG. 2A-B), and the disease index, morbidity and control efficiency of the experimental group were calculated.

The mark [2] stands for this setting: Example 3: 700 mg/L allantoin aqueous solution sprayed on leaves once every three days, spreading stage.
The mark [3] stands for this setting: Example 4: 1050 mg/L allantoin aqueous solution sprayed on leaves once every three days, three-leaves and one-bud stage.

Turning to `NC(=O)NC1NC(=O)NC1=O` (stereo not shown) [allantoin], the “growth of the pathogen of muskmelon gummy stem blight on plate” value in assay [1] is on record as “does not inhibit the growth”. Also, the control efficiency with muskmelon powdery mildew (setting [2]) and in the assay on muskmelon powdery mildew (setting [3]) was 100% each time. Also, the disease index with muskmelon powdery mildew (setting [2]) and in the assay with muskmelon powdery mildew (setting [3]) was 0 throughout. Moreover, the plant morbidity with muskmelon powdery mildew (setting [2]) was found to be 0%; in the assay with muskmelon powdery mildew (Example 4: 1050 mg/L allantoin aqueous solution sprayed on leaves once every three days, three-leaves and one-bud (seedling) stage) it was 0%. The “powdery mildew spots on the leaves” value in the assay with muskmelon powdery mildew (Example 3: 700 mg/L allantoin aqueous solution, spreading stage (FIG. 1A)) is “no powdery mildew spot is generated on the leaves”; in the assay with muskmelon powdery mildew (Example 4: 1050 mg/L allantoin aqueous solution, three-leaves and one-bud stage (FIG. 2)) it was “no powdery mildew spot is generated on the leaves”. Besides, the “control efficiency (summary statement)” value with muskmelon powdery mildew (aqueous solution containing allantoin sprayed on leaves in the spreading stage or the three-leaves and one-bud stage) was at most 100%.
